What all share (format): functional
The subject of assay [1] is Candida albicans. Put plainly: Antifungal activity against Candida albicans in Sabouraud dextrose broth.
Assay [2] deals with Candida albicans. As to the kind of experiment: Antifungal activity against Candida albicans in RPMI medium.
The subject of the next assay is Aspergillus fumigatus. As to the kind of experiment: Antifungal activity against Aspergillus fumigatus.

SMILES strings stand for the structures. Converted amounts (≈) assume the structure as drawn.

Broadly, the MIC is the lowest concentration found to suppress growth. As a reminder, the IC90 is the concentration at which the effect reaches the 90% level. Read a high IC90 as weaker potency. For the molecule `CC/C=C/C=C/C=C/CCCCCCCC[C@]1(C)C[C@](C)(CC(=O)O)OO1` [PLAKINIC ACID F], the MIC against Candida albicans [1] is 25 µg/mL (≈ 66 µM); with Candida albicans [2], 3.1 µg/mL (≈ 8.19 µM). The IC90 in the assay with Aspergillus fumigatus turned out to be 25 µg/mL (≈ 66 µM).

As to `C[C@@]1(CCCCCCCCCc2ccc(O)cc2)C[C@]2(C)OC(=O)C[C@@H]2OO1` [PLAKORTOLIDE F], the minimum inhibitory concentration (MIC) against Candida albicans [1] and in the assay with Candida albicans [2] was > 125 µg/mL in each case. Further, in the assay with Aspergillus fumigatus, the concentration for an effect of 90% (IC90) is > 125 µg/mL.

Take `CC/C=C/C=C/C=C/CCCCCCCC[C@@]1(C)C[C@](C)(CC(=O)O)OO1` [EPIPLAKINIC ACID F]: the MIC in the assay with Candida albicans [1] amounted to 25 µg/mL (≈ 66 µM); against Candida albicans [2] it was 6.25 µg/mL (≈ 16.5 µM). Also, the 90% effect level in the assay with Aspergillus fumigatus (IC90) was put at 25 µg/mL (≈ 66 µM).
